Common to all, as to format: biochemical
Assay [1] addresses T1, PTPN2 (Homo sapiens, UniProt P17706).
T1 construct: full length human PTPN2 (TC45 variant), 6xHis-tagged
T1 sequence (P17706 1-381 limits assumed): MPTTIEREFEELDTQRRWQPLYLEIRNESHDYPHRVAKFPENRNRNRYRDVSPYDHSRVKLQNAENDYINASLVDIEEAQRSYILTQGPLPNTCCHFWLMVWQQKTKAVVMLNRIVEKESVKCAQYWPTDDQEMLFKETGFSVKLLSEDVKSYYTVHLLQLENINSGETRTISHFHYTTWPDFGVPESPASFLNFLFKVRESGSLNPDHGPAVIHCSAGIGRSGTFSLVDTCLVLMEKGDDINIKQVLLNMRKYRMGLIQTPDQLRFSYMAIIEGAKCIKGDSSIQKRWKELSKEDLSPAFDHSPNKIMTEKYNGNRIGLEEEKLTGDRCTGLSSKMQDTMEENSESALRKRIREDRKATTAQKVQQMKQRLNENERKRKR
Nature of the assay: RP-UFLC phosphatase assay with FAM-pStat1 peptide; time- and concentration-dependent inactivation kinetics (ki […] ^-1 min^-1).

Assay [2] concerns the target T1, PTPN2. Nature of the assay: dephosphorylation of chromogenic substrate by purified enzyme.
Assay [3] concerns the target T1, PTPN2. Kind of assay: RP-UFLC phosphatase assay with FAM-pStat1 peptide.

As for `C=CS(=O)(=O)Oc1ccccc1` [PVSN, phenyl vinyl sulfonate], the IC50 in assay [1] is 180 µM.

Take `O=[N+]([O-])c1ccc(OP(=O)(O)O)cc1` [pNPP, p-nitrophenyl phosphate]: in assay [2], the “dephosphorylation of chromogenic substrate by purified enzyme” value was “Purified PTPN2 was functional as demonstrated by the dephosphorylation of the non-proteinaceous and non-specific chromogenic substrate p-nitrophenyl phosphate (pNPP)”.

Regarding `[O]=[V]([OH])([OH])[OH]` [orthovanadate], in assay [3], the IC50 was roughly 1 µM.

What is called IC50 is the concentration at which inhibition is half-maximal. Low readings indicate greater potency in that assay, high ones weaker potency in that assay.

The values are drawn from paper PMC4455150, “A RP-UFLC Assay for Protein Tyrosine Phosphatases: Focus on Protein Tyrosine Phosphatase Non-Receptor Type 2 (PTPN2)” (Scientific Reports, 2015).
